Columns and labels:
HCV replicon cells = test: HCV replicon assay (FRET or luciferase readout); type: cell-based; settings: Hepatitis C virus
Source text: FRET Assay Preparation. To perform the HCV FRET screening assay, 96-well cell culture plates were used. The FRET peptide (Anaspec, Inc.) (Taliani et al., Anal. Biochem. 1996, 240, 60-67) contains a fluorescence donor, EDANS, near one end of the peptide and an acceptor, DABCYL, near the other end. The fluorescence of the peptide is quenched by […] resonance energy transfer (RET) between the donor and the acceptor, but as the NS3 protease cleaves the peptide the products are released from RET quenching and the fluorescence of the donor becomes apparent. The assay reagent was made as follows: 5× cell Luciferase cell culture lysis reagent from Promega (#E153A) diluted to 1× with dH2O, NaCl added to 150 mM final, the FRET peptide diluted to 20 μM final from a 2 mM stock.
To prepare plates, HCV replicon cells, with or without a Renilla luciferase reporter gene, were trypsinized and placed into each well of a 96-well plate with titrated test compounds added in columns 3 through 12; columns 1 and 2 contained a control compound (HCV protease inhibitor), and the bottom row contained cells without compound. The plates were then placed in a CO2 incubator at 37° C.
Assays. Subsequent to addition of the test compounds described above (FRET Assay Preparation), at various times the plate was removed and Alamar blue solution (Trek Diagnostics, #00-100) was added per well as a measure of cellular toxicity. After reading in a Cytoflour 4000 instrument (PE Biosystems), plates were rinsed with PBS and then used for FRET assay by the addition of 30 ul of the FRET peptide assay reagent described above (FRET Assay Preparation) per well. The plate was then placed into the Cytoflour 4000 instrument which had been set to 340 excite/490 emission, automatic mode for 20 cycles and the plate read in a kinetic mode. Typically, the signal to noise using an endpoint analysis after the reads was at least three-fold. Alternatively, after Alamar blue reading, plates were rinsed with PBS, 50 ul of DMEM (high glucose) without phenol red was added and plates were then used for luciferase assay using the Promega Dual-Glo Luciferase Assay System.
Compound analysis was determined by quantification of the relative HCV replicon inhibition and the relative cytotoxicity values. To calculate cytoxicity values, the average Alamar Blue fluorescence signals from the control wells were set as 100% non-toxic. The individual signals in each of the compound test wells were then divided by the average control signal and multiplied by 100% to determine […]. To calculate the HCV replicon inhibition values, an average background value was obtained from the two wells containing the highest amount of HCV protease inhibitor at the end of the assay period. These numbers were similar to those obtained from naïve Huh-7 cells.
The background numbers were then subtracted from the average signal obtained from the control wells and this number was used as 100% activity. The individual signals in each of the compound test wells were then divided by the averaged control values after background subtraction and multiplied by 100% to determine percent activity. EC50 values for a protease inhibitor titration were calculated as the concentration which caused a 50% reduction in FRET or luciferase activity. The two numbers generated for the compound plate, percent cytoxicity and percent activity were used to determine compounds of interest for further analysis.

[1] = molecular target: T1, HCV NS5B RdRp genotype 1b (Hepatitis C virus genotype 1b, UniProt Q9WMX2); test: HCV NS5B RdRp enzyme assay (standard / modified); type: biochemical; settings: HCV NS5B genotype 1b
T1 construct: The protein was expressed with an 18 amino acid C-terminal truncation to enhance the solubility; made in house; host or cells: E. coli BL21(DE3), pET21a vector
Protocol: HCV NS5B RdRp cloning, expression, and purification. The cDNA encoding the NS5B protein of HCV, genotype 1b, was cloned into the pET21a expression vector. The protein was expressed with an 18 amino acid C-terminal truncation to enhance the solubility. The E. coli competent cell line BL21(DE3) was used for expression of the protein. Cultures were grown at 37° C. for ˜4 hours until the cultures reached an optical density of 2.0 at 600 nm. The cultures were cooled to 20° C. and induced with 1 mM IPTG. Fresh ampicillin was added to a final concentration of 50 μg/ml and the cells were grown overnight at 20° C.
Cell pellets (3 L) were lysed for purification to yield 15-24 mgs of purified NS5B. The lysis buffer consisted of 20 mM Tris-HCl, pH 7.4, 500 mM NaCl, 0.5% triton X-100, 1 mM DTT, 1 mM EDTA, 20% glycerol, 0.5 mg/ml lysozyme, 10 mM MgCl2, 15 ug/ml deoxyribonuclease I, and Complete™ protease inhibitor tablets (Roche). After addition of the lysis buffer, frozen cell pellets were resuspended using a tissue homogenizer. To reduce the viscosity of the sample, aliquots of the lysate were sonicated on ice using a microtip attached to a Branson sonicator. The sonicated lysate was centrifuged at 100,000×g for 1 hr at 4° C. and filtered through a 0.2 μm filter unit (Corning).
The protein was purified using three sequential chromatography steps: Heparin sepharose CL-6B, polyU sepharose 4B, and Hitrap SP sepharose (Pharmacia). The chromatography buffers were identical to the lysis buffer but contained no lysozyme, deoxyribonuclease I, MgCl2 or protease inhibitor and the NaCl concentration of the buffer was adjusted according to the requirements for charging the protein onto the column. Each column was eluted with a NaCl gradient which varied in length from 5-50 column volumes depending on the column type. After the final chromatography step, the resulting purity of the enzyme is >90% based on SDS-PAGE analysis. The enzyme was aliquoted and stored at −80° C.
Standard HCV NS5B RdRp enzyme assay. HCV RdRp genotype 1b assays were run in a final volume of 60 μl in 96 well plates (Costar 3912). The assay buffer is composed of 20 mM Hepes, pH 7.5, 2.5 mM KCl, 2.5 mM MgCl2, 1 mM DTT, 1.6 U RNAse inhibitor (Promega N2515), 0.1 mg/ml BSA (Promega R3961), and 2% glycerol. All compounds were serially diluted (3-fold) in DMSO and diluted further in water such that the final concentration of DMSO in the assay was 2%. HCV RdRp genotype 1b enzyme was used at a final concentration of 28 nM. A polyA template was used at 6 nM, and a biotinylated oligo-dT12 primer was used at 180 nM final concentration. Template was obtained commercially (Amersham 27-4110). Biotinylated primer was prepared by Sigma Genosys. 3H-UTP was used at 0.6 μCi (0.29 μM total UTP). Reactions were initiated by the addition of enzyme, incubated at 30° C. for 60 min, and stopped by adding 25 μl of 50 mM EDTA containing SPA beads (4 μg/μl, Amersham RPNQ 0007). Plates were read on a Packard Top Count NXT after >1 hr incubation at room temperature.
Modified HCV NS5B RdRp enzyme assay. A modified enzyme assay was performed essentially as described for the standard enzyme assay except for the following: The biotinylated oligo dT12 primer was precaptured on streptavidin-coated SPA beads by mixing primer and beads in assay buffer and incubating at room temperature for one hour. Unbound primer was removed after centrifugation. The primer-bound beads were resuspended in 20 mM Hepes buffer, pH 7.5 and used in the assay at final concentrations of 20 nM primer and 0.67 μg/μl beads. Order of addition in the assay: enzyme (14 nM) was added to diluted compound followed by the addition of a mixture of template (0.2 nM), 3H-UTP (0.6 μCi, 0.29 μM), and primer-bound beads, to initiate the reaction; concentrations given are final. Reactions were allowed to proceed for 4 hours at 30° C.
IC50 values for compounds were determined using seven different [I]. […]

T1 sequence (Q9WMX2 2420-2992): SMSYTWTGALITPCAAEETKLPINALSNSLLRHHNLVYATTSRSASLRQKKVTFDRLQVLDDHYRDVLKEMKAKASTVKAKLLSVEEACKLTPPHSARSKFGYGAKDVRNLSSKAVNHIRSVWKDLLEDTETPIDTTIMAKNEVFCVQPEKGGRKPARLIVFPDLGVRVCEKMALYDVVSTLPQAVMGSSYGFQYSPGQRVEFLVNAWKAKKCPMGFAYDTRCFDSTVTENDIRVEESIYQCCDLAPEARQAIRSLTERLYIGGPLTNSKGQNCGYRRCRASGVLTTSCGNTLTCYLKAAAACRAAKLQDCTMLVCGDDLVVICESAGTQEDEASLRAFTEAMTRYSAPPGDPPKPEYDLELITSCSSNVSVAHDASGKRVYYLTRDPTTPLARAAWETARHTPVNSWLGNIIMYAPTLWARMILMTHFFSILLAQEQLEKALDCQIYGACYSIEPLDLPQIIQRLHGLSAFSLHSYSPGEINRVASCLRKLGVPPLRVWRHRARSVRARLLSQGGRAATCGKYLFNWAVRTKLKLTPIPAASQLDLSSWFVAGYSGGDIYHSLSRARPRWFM

SMILES | EC50 (HCV replicon cells; Table 2) | IC50 ([1]; Table 2) | EC50 (HCV replicon cells; Table 1) | IC50 ([1]; Table 1)
CNC(=O)c1c(-c2ccc(F)cc2)nc2ccc(-c3cccc(C(=O)NC(C)(C)C)c3)cn12 [drawing 180] | 0.4 µM | 0.64 µM | – | –
CCN(c1cn2nc(-c3ccc(F)cc3)c(C(=O)NC)c2cc1-c1cccc(C(=O)NC(C)(C)c2ccccc2)c1)S(C)(=O)=O [drawing 176] | 0.00598 µM | 0.0096 µM | – | –
CNC(=O)c1c(-c2ccc(F)cc2)nn2ccc(-c3cc(C(=O)NC(C)(C)C)ccc3OC)cc12 | – | – | 0.25 to 1 µM | 0.002 to 0.25 µM
CNC(=O)c1c2cc(-c3cccc(C(=O)NC(C)(C)c4ccccc4)c3)ccc2nn1-c1ccc(F)cc1 | – | – | 0.25 to 1 µM | 0.002 to 0.25 µM
CNC(=O)c1c(-c2ccc(F)cc2)nn2ccc(-n3ccc(C(=O)NC(C)(C)c4ccccc4)c3)cc12 | – | – | > 10 µM | 1 to 10 µM
CNC(=O)c1c(-c2ccc(F)cc2)oc2cnc(-c3cc(C(=O)NC4(c5ccccn5)CC4)ccc3C)cc12 | – | – | 0.002 to 0.25 µM | 0.002 to 0.25 µM
CCOc1ccccc1-c1ccc2c(C(=O)NC)c(-c3ccc(F)cc3)nn2c1 | – | – | > 10 µM | > 10 µM
CNC(=O)c1c(-c2ccc(F)cc2)nc2cc(C)c(-c3cc(C(=O)NC(C)(C)c4ccccc4)ccc3C)cn12 | – | – | 0.002 to 0.25 µM | 0.002 to 0.25 µM
CNC(=O)c1c(-c2ccc(F)cc2)nn2ccc(-n3cc(C(=O)NC(C)(C)c4ccccc4)ccc3=O)cc12 | – | – | 0.25 to 1 µM | 0.002 to 0.25 µM
CNC(=O)c1c(-c2ccc(F)cc2)nc2ccc(-c3cccc(C(=O)NC(C)(C)C)c3)cn12 [drawing 77] | – | – | 0.25 to 1 µM | 0.25 to 1 µM
CNC(=O)c1c(-c2ccc(F)cc2)nn2c(F)cc(-c3cc(C(=O)NC4(c5ccccn5)CC4)ccc3C)cc12 | – | – | 0.002 to 0.25 µM | 0.002 to 0.25 µM
CCN(c1cn2nc(-c3ccc(F)cc3)c(C(=O)NC)c2cc1-c1cccc(C(=O)NC2(c3ccccn3)CC2)c1)S(C)(=O)=O | – | – | 0.002 to 0.25 µM | 0.002 to 0.25 µM
CCc1ccccc1-c1ccc2c(C(=O)NC)c(-c3ccccc3)nn2c1 | – | – | > 10 µM | > 10 µM
CNC(=O)c1c(-c2ccc(F)cc2)nn2ccc(NCc3ccccc3)cc12 | – | – | > 10 µM | > 10 µM
CNC(=O)c1c(-c2ccc(F)cc2)nn2ccc(NC(=O)c3ccc(OC)cc3)cc12 | – | – | > 10 µM | > 10 µM
CNC(=O)c1c(-c2ccc(F)cc2)nn2ccc(-c3cc(C(=O)NC4(c5ccc(F)cc5)CC4)c(OC)cc3C)c(F)c12 | – | – | 0.002 to 0.25 µM | 0.002 to 0.25 µM
CNC(=O)c1c(-c2ccc(F)cc2)nn2ccc(-c3cc(C(=O)NC4(c5ncccn5)CC4)c(OC)cc3C)c(F)c12 | – | – | 0.002 to 0.25 µM | 0.002 to 0.25 µM

SMILES | EC50 (HCV replicon cells; Table 2) | IC50 ([1]; Table 2) | EC50 (HCV replicon cells; Table 1) | IC50 ([1]; Table 1)
CNC(=O)c1c(-c2ccc(F)cc2)nn2ccc(-c3cc(C(=O)NC4(c5ccccn5)CC4)ccc3C)c(F)c12 [drawing 130] | – | – | 0.002 to 0.25 µM | 0.002 to 0.25 µM
CNC(=O)c1c(-c2ccccc2)nn2cc(N3CCOC3=O)ccc12 | – | – | > 10 µM | > 10 µM
CNC(=O)c1c(-c2ccc(F)cc2)nn2cc(NS(C)(=O)=O)c(-c3cccc(C(=O)NC(C)(C)c4ccccc4)c3)cc12 | – | – | 1 to 10 µM | 0.002 to 0.25 µM
CCN(c1cn2nc(-c3ccc(F)cc3)c(C(=O)NC)c2cc1C1CCCC1)S(C)(=O)=O | – | – | 1 to 10 µM | 0.25 to 1 µM
CCN(c1cn2nc(-c3ccc(F)cc3)c(C(=O)NC)c2cc1-c1cccc(C(=O)NC(C)(C)c2ccccc2)c1)S(C)(=O)=O [drawing 92] | – | – | 0.002 to 0.25 µM | 0.002 to 0.25 µM
CNC(=O)c1c(-c2ccc(F)cc2)nn2cccc(NC(=O)OC(C)(C)C)c12 | – | – | > 10 µM | > 10 µM
CNC(=O)c1c(-c2ccc(F)cc2)nn2ccc(-c3cc(C(=O)NC4(c5ccccc5)CC4)ccc3C)cc12 [drawing 87] | – | – | 0.002 to 0.25 µM | 0.002 to 0.25 µM
CNC(=O)c1c(-c2ccc(F)cc2)nn2cc(NC(=O)C(F)(F)F)ccc12 | – | – | > 10 µM | > 10 µM
COC(=O)c1c(-c2ccccc2)nn2ccc(-c3cccc(C(=O)NC(C)(C)c4ccccc4)c3)cc12 | – | – | > 10 µM | > 10 µM
CC(C)(NC(=O)c1cccc(-c2ccn3nc(-c4ccccc4)c(C(=O)O)c3c2)c1)c1ccccc1 | – | – | > 10 µM | > 10 µM
CNC(=O)c1c(-c2ccc(F)cc2)nc2ccc(-c3ccc(-c4ccccc4)c(C(=O)NCC(C)C)c3)cn12 | – | – | 0.25 to 1 µM | > 0.5 µM
CNC(=O)c1c(-c2ccc(F)cc2)nn2c(C)cc(-c3cc(C(=O)NC4(c5ccccc5)CC4)ccc3C)cc12 | – | – | 0.002 to 0.25 µM | 0.002 to 0.25 µM
CNC(=O)c1c(-c2ccc(F)cc2)nn2ccc(NC(=O)c3ccccc3OC)cc12 | – | – | > 10 µM | > 10 µM
CNC(=O)c1c(-c2ccc(F)cc2)oc2ncc(-c3cc(C(=O)NC4(c5ccccn5)CC4)ccc3C)cc12 [drawing 116] | – | – | 0.002 to 0.25 µM | 0.002 to 0.25 µM
CNC(=O)c1c(-c2ccccc2)nn2ccc(-c3cccc(C(=O)NC(C)(C)c4ccccc4)c3)cc12 | – | – | 0.002 to 0.25 µM | 0.002 to 0.25 µM
CNC(=O)c1c(-c2ccc(F)cc2)nn2cc(N(CCO)S(C)(=O)=O)c(-c3cccc(C(=O)NC4(c5ccccn5)CC4)c3)cc12 [drawing 86] | – | – | 1 to 10 µM | 0.002 to 0.25 µM
CNC(=O)c1c(-c2ccc(F)cc2)nn2ccc(-c3cc(C(=O)NC4(c5ccc(F)cc5)CC4)ccc3C)cc12 | – | – | 0.002 to 0.25 µM | 0.002 to 0.25 µM
